Laboratory results from US12486218B2, “Compounds advantageous in the treatment of central nervous system diseases and disorders” (AurimMed Pharma, Inc., priority 2008, dated 2025).

Assays:
[1] = target: CYP-450 2A6 (Homo sapiens, UniProt P11509); experiment: In vitro human CYP-450 study, 2A6; type: in vitro ADME; conditions: human enzyme
From the text: (§1) On the other hand, it is an inhibitor for 2C19, 2D6, 2A6 and 2C9.

[2] = tested on: mice; experiment: Corneal kindled mouse model; type: in vivo; conditions: mice i.p.; 50 mg/kg @ 1.0 hr
[3] = tested on: mice; experiment: 6 Hz (minimal clonic seizure) model, mice i.p.; type: in vivo; conditions: Mus musculus, ip; mice, i.p.; read-out: 6 Hz ED50
[4] = target: CYP-450 2B6 (Homo sapiens, UniProt P20813); experiment: In vitro human CYP-450 study, 2B6; type: in vitro ADME; conditions: human enzyme
From the text: as §1

[5] = tested on: rats; experiment: Minimal motor impairment (MID50), rats p.o.; type: in vivo
[6] = target: CYP-450 2C9 (Homo sapiens, UniProt P11712); experiment: In vitro human CYP-450 study, 2C9; type: in vitro ADME; conditions: human enzyme
From the text: as §1

[7] = target: CYP-450 3A4 (Homo sapiens, UniProt P08684); experiment: In vitro human CYP-450 study, 3A4; type: in vitro ADME; conditions: human enzyme
From the text: as §1

[8] = tested on: rats; experiment: s.c. MET test, rats p.o.; type: in vivo; conditions: Rattus norvegicus, p.o.
[9] = tested on: GABA receptors; experiment: Electrophysiology, GABA receptor currents; type: cell-based; conditions: at 100 μM, holding potential −70 mV
From the text: (§2) The mechanisms of action of many currently marketed anticonvulsant drugs are not fully understood. Although numerous molecular targets exist wherein anticonvulsants may exert an effect, the final common pathway appears to be through modulation of voltage-gated and/or neurotransmitter-gated ion channels. Thus, the common link among the various proposed mechanisms involves the ability of an anticonvulsant to modulate ion channel function. Presently, a number of prototype anticonvulsants are thought to exert their action (at least in part) by reducing sustained, high-frequency repetitive firing of action potentials by modulating voltage-dependent sodium (Na+) channels. The effect of promising candidate substances on voltage-gated Na+ channels can be assessed using state-of-the-art electrophysiological techniques.

[10] = tested on: sodium channels; experiment: Electrophysiology, sodium currents; type: cell-based; conditions: at 100 μM, ±S.E.M., 8 cells
From the text: as §2
The effects of compound H (at a concentration of 100 μM) on sodium currents were evaluated in electrophysiological studies at holding potentials of −60 and −90 mV (using 8 cells). […] By way of comparison, the % of control inhibited for typical sodium-channel-blocking drugs such as phenytoin or lamotrigine is about 50%. […]

[11] = target: CYP-450 2E1 (Homo sapiens, UniProt P05181); experiment: In vitro human CYP-450 study, 2E1; type: in vitro ADME; conditions: human enzyme
From the text: as §1

[12] = tested on: SMN2 promoter; experiment: SMN2 promoter β-lactamase reporter assay in NSC34 motor neuron-like cells; type: cell-based
Experimental: FIG. 30 illustrates a screen for SMN2 expression of a number of compounds described herein.
SMN2 promoter activity was measured using NSC34 motor neuron-like cells stably transfected with a β-lactamase (BLA) reporter gene under the control of a 3.4-kilobase fragment of the SMN2 promoter. D156844 was used as a positive control for this assay.

[13] = tested on: mice; experiment: MPTP-induced Parkinson's disease model in mice, behavioral assays; type: in vivo, C57/B16 male mice
Experimental: In FIG. 27A-27C, Data are Illustrated Showing the Effect of Oral Treatment of mice for two weeks with compound BX in an MPTP-induced Parkinson's disease model. MPTP (1-methyl-4-phenyl-1,2,3,6-tetrahydropyridine) is a neurotoxin precursor to MPP+, which causes permanent symptoms of Parkinson's disease by destroying dopaminergic neurons in the substantia nigra of the brain. It has been used to study disease models in various animal studies.
In the study, 9 month-old C57/B16 male mice were treated for 7 days of MPTP injection at a rate of 25 mg/kg dose: once a day. Mice in the treatment group were subsequently treated with 14 days of gavage with compound BX at a rate of 50 μg/gram dose: once a day. Treatment was followed with 5 days of behavioral assays
Mice were scored on the number of legs slips per crossing.
Mice tend to groom more often when they are healthy and feeling content.

[14] = tested on: Drosophila; experiment: Rotenone-induced toxicity, Drosophila model of sporadic Parkinson's disease; type: in vivo
From the text: FIGS. 26A-26C illustrate the effect of compound BX in another Parkinson's disease model. Chronic infusion of rotenone to fruit flies reproduces many features of Parkinson disease. Rotenone is a pesticide that inhibits mitochondrial complex I activity, thus creating an environment of oxidative stress in the cell. Many studies have employed rotenone to generate an experimental animal model of Parkinson's disease (PD) that mimics and elicits PD-like symptoms, such as motor and cognitive decline. […] Compound BX therefore protects Drosophila from the neurotoxic effects of rotenone and may prevent oxidative stress in dopaminergic neurons.

[15] = tested on: rats; experiment: Water maze, spatial memory and learning in lithium-pilocarpine treated rats; type: in vivo; conditions: pilocarpine-induced SE rats
Experimental: To assess spatial memory and learning in lithium-pilocarpine treated animals and to identify novel compounds that might ameliorate cognitive deficits and neuronal loss, rats were tested for their ability to navigate a water maze and find a submerged escape platform based only on their ability to remember and assess only extra maze visual cues. Learning can be assessed by quantifying the time that an animal takes to find the platform (latency) over a number of independent trials. Further, this model is sensitive to the hippocampal damage associated with pilocarpine-induced status epilepticus (SE).

Sequence of CYP-450 3A4 (P08684 whole entry): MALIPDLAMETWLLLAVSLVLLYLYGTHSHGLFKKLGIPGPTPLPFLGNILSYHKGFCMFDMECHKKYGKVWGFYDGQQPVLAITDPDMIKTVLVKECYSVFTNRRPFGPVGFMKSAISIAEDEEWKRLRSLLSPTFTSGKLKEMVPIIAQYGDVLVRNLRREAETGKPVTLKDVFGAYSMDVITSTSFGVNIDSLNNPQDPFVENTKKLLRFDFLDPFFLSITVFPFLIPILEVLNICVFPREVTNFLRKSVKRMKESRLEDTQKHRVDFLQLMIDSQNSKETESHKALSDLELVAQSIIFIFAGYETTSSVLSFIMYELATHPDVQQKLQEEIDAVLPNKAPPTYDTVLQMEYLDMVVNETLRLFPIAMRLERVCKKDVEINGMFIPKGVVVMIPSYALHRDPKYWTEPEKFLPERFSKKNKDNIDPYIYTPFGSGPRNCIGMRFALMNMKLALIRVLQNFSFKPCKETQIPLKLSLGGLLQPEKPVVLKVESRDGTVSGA
Sequence of CYP-450 2C9 (P11712 whole entry): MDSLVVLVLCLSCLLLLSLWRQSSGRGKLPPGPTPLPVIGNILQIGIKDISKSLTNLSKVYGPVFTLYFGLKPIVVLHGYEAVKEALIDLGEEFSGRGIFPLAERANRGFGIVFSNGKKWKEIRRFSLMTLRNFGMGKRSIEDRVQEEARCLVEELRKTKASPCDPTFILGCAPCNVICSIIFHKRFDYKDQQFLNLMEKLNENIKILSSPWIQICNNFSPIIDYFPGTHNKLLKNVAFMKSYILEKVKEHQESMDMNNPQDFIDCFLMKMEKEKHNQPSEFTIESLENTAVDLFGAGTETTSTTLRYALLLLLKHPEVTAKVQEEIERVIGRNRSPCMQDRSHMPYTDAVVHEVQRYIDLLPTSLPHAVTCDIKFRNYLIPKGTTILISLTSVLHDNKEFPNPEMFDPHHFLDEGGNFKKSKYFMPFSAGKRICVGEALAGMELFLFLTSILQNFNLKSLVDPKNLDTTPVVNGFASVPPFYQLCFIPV
Sequence of CYP-450 2A6 (P11509 whole entry): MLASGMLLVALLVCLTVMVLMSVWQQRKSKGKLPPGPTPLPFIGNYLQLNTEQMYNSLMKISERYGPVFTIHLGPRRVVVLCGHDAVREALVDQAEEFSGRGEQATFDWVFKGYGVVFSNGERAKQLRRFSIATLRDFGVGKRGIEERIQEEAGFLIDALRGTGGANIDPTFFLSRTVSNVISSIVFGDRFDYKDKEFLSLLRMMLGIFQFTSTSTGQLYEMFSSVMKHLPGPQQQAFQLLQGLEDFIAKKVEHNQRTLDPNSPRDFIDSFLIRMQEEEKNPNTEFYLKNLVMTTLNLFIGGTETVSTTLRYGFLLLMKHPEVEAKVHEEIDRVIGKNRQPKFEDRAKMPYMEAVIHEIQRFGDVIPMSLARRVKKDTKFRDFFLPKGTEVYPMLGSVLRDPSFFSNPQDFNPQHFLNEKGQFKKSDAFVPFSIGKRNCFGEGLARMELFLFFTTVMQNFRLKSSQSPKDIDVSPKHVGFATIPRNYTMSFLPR
Sequence of CYP-450 2B6 (P20813 whole entry): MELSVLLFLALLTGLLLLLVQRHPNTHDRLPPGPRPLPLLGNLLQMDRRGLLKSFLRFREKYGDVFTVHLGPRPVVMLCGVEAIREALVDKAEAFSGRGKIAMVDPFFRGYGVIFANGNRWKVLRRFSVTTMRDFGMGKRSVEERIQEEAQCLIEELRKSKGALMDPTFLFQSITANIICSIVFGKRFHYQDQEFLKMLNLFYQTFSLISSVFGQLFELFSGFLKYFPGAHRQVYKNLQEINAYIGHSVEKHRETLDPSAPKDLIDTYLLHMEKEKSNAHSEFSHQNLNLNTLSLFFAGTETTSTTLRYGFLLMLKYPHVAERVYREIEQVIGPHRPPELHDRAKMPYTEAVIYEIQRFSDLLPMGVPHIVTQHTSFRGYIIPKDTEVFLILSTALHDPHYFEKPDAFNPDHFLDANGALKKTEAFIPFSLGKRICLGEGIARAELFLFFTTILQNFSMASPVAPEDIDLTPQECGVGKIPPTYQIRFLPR
Sequence of CYP-450 2E1 (P05181 whole entry): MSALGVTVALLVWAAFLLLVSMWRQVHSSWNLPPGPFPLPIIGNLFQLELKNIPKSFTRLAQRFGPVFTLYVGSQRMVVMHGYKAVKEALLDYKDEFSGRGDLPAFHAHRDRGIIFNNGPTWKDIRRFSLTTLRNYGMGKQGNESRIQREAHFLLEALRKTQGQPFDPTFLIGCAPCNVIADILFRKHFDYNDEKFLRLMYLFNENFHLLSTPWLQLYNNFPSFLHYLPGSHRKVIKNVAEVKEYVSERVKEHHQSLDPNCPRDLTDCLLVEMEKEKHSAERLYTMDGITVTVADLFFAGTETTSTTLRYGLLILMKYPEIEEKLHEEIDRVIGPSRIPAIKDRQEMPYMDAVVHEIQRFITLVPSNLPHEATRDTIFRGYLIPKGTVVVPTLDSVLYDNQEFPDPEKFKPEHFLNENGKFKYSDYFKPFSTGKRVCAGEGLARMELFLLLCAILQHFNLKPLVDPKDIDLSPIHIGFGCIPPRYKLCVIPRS

Question: `CC(CC(N)=O)c1ccc(OC(F)(F)F)cc1` (racemic) [Compound H, 3-[4-(trifluoromethoxy)-phenyl]butyramide] was tested. Which “inhibition of CYP-450 2A6” value [1] did it give?
Answer: inhibitor

Question: And the “Corneal Kindled, Average seizure score” value [2]?
Answer: 2: (0, 4,

Question: And the “Corneal Kindled, fraction of animals” value [2]?
Answer: 2/4 @

Question: What about the ED50 [3] of the same compound?
Answer: 55 mg/kg

Question: And the “inhibition of CYP-450 2B6” value [4]?
Answer: either no or only a remote possibility of inhibiting

Question: And the MID50 [5]?
Answer: >500 mg/kg

Question: What about the “inhibition of CYP-450 2C9” value [6] of the same compound?
Answer: inhibitor

Question: And the “inhibition of CYP-450 3A4” value [7]?
Answer: either no or only a remote possibility of inhibiting

Question: What about the ED50 [8] of the same compound?
Answer: 88.1 mg/kg

Question: And the GABA receptor response [9]?
Answer: 108±3 % of control

Question: And the sodium currents ([10]; holding potential −60 mV)?
Answer: 91±1 % of control

Question: And the sodium currents ([10]; holding potential −90 mV)?
Answer: 98±1 % of control

Question: And the “inhibition of CYP-450 2E1” value [11]?
Answer: either no or only a remote possibility of inhibiting

Question: With `C[C@H](CC(N)=O)c1ccc(OC(F)(F)F)cc1` (single isomer, unassigned) [Compound BX, R-(−)-3-(4-Trifluoromethoxy-phenyl)butyramide] as the compound, how does the “SMN2 promoter assay, particularly strong hits” value ([12]; NSC34 BLA reporter cells) read?
Answer: Particularly strong hits

Question: What about the “Promoter (SMN2 promoter test, summary YES/NO)” value ([12]; Table 13 summary) of the same compound?
Answer: YES

Question: And the SMN2 promoter activity ([12]; treatment for 19 hours at a concentration of 1 μM)?
Answer: increased SMN2 promoter activity

Question: What about the “hindlimb clasping test, abnormal involuntary movement” value ([13]; gavage 50 μg/gram once a day for 14 days) of the same compound?
Answer: reduced MPTP-induced abnormal involuntary movement

Question: And the “coat grooming test, grooming behavior” value ([13]; oral treatment for two weeks)?
Answer: significantly improved the grooming behavior

Question: What about the “crossbeam test, motor coordination / leg slips” value ([13]; oral treatment for two weeks) of the same compound?
Answer: significantly improved the motor coordination and reduced the number of leg slips

Question: And the “survival of Drosophila exposed to rotenone” value ([14]; 500 μM rotenone)?
Answer: enhances survival

Question: And the “locomotion speed in rotenone-treated flies” value ([14]; rotenone-treated Drosophila versus mock-treated controls)?
Answer: increases locomotion speed in rotenone-treated flies to a level virtually indistinguishable from mock-treated controls

Question: And the “spatial learning and memory in the water maze task” value [15]?
Answer: preserved spatial learning and memory

Question: And the “water maze learning curve in terms of latency” value [15]?
Answer: much faster learning curve
